Laboratory results published in US20240270821A1, “GIP/GLP1/GCG TRI-RECEPTOR AGONISTS AND USES THEREOF” (priority 2023, published 2024).
Like-named read-outs stand apart in the source and are kept apart here. Starred links: 1 amine or outer side, 2 acyl side, 3 side chain; linkers in the order of their positions; H or OH if unused. Non-standard residues stand in square brackets, D forms with d. Groups on a side chain read outwards from the residue. No end group written: not given here. *: point of attachment. C20 diacid = O=C(O)CCCCCCCCCCCCCCCCCCC(=O)*; C18 diacid = O=C(O)CCCCCCCCCCCCCCCCC(=O)*; Phe(4-CN) = N#Cc1ccc(C[C@H](N)C(=O)O)cc1; αMePhe(2-F) = C[C@](N)(Cc1ccccc1F)C(=O)O; γGlu = O=C(O)[C@H](CCC(=O)[*:2])N[*:1]; NMeY = CN[C@@H](Cc1ccc(O)cc1)C(=O)O; αMe4Pal = C[C@](N)(Cc1ccncc1)C(=O)O; αMeY = C[C@](N)(Cc1ccc(O)cc1)C(=O)O; αMeF = C[C@](N)(Cc1ccccc1)C(=O)O; 4Pal = N[C@@H](Cc1ccncc1)C(=O)O; αMeL = CC(C)C[C@](C)(N)C(=O)O; αMeS = C[C@](N)(CO)C(=O)O; Orn = NCCC[C@H](N)C(=O)O; AEEA = NCCOCCOCC(=O)O; Aib = CC(C)(N)C(=O)O

What was measured:
Type in all cases: cell-based
hGcgR = hGcgR (Homo sapiens, UniProt P47871); assay: Functional cAMP activation in the presence of 0.1% casein (no HSA); conditions: read-out: Relative cAMP EC50, hGcgR;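 further: intracellular cAMP rise after 30 min at 37 °C, read by HTRF against a cAMP standard curve, scaled from buffer only (0%) to maximal control ligand response (100%)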
hGIPR [1] = target: T1, hGIPR (Homo sapiens, UniProt P48546); assay: Functional cAMP activity in the presence of 1% HSA; conditions: read-out: cAMP Rel EC50, hGIPR
T1 sequence (P48546 22-466): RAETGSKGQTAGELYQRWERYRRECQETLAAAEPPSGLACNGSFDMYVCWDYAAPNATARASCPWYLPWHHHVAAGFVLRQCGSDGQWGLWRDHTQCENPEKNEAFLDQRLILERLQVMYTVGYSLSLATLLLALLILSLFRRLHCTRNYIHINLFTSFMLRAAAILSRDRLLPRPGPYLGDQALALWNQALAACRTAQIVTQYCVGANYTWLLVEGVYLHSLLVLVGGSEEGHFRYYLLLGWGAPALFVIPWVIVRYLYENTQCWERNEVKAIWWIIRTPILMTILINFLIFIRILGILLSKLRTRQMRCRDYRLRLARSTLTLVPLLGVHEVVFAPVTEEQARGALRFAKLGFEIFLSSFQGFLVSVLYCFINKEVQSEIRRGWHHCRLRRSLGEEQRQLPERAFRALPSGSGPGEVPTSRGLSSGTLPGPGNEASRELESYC

human GcgR = human GcgR (Homo sapiens, UniProt P47871); assay: Functional cAMP activity in the presence of 1% HSA; conditions: read-out: cAMP Rel EC50, hGcgR
hGLP-1R [2] = target: T2, hGLP-1R (Homo sapiens, UniProt P43220); assay: Functional cAMP activity in the presence of 1% HSA; conditions: read-out: cAMP Rel EC50, hGLP-1R
hGIPR [3] = target: T1, hGIPR; assay: Functional cAMP activation in the presence of 0.1% casein (no HSA); conditions: read-out: Relative cAMP EC50, hGIPR;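 on Relative cAMP EC50, hGIPR: intracellular cAMP rise after 30 min at 37 °C read by HTRF against a standard curve, scaled between buffer alone (0%) and top control ligand concentration (100%), four-parameter fit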;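 on Relative cAMP EC50, hGLP-1R: intracellular cAMP rise after 30 min at 37 °C read by HTRF, normalized between buffer only (0%) and maximal control ligand (100%), four-parameter variable-slope fit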
hGLP-1R [4] = target: T2, hGLP-1R; assay: as above; conditions: read-out: Relative cAMP EC50, hGLP-1R
[5] = 0.1% casein, no HSA, geometric mean
[6] = in the presence of 0.1% casein (no HSA), geometric mean

T2 sequence (P43220 24-463): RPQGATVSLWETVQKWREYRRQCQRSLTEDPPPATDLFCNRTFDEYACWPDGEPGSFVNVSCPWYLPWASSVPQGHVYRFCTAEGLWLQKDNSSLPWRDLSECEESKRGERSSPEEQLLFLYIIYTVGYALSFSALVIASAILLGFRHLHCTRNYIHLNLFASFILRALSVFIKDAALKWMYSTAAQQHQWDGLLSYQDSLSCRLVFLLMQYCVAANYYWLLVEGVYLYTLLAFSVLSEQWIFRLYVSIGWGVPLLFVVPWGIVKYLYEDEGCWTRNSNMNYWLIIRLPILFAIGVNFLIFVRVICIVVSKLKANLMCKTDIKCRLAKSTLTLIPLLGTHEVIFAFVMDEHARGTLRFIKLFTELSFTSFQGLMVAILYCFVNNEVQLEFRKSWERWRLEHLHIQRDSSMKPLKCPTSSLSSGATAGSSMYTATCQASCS
human GcgR, sequence (P47871 26-477): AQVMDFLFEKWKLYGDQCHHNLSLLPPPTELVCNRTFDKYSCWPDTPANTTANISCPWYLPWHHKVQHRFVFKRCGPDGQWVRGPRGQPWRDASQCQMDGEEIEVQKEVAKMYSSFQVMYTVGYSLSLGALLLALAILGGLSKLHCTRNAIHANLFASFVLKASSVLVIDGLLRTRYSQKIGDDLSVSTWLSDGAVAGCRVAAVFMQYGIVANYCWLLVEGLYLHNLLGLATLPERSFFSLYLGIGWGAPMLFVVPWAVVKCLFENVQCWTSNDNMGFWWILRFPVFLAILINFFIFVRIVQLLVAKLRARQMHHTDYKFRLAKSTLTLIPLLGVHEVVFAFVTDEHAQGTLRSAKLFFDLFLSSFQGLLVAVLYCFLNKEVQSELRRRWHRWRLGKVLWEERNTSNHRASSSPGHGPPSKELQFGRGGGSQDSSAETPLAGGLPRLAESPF
hGcgR, sequence (P47871 26-477): as above

| Substance | EC50 (hGcgR; [5]) [nM] | EC50 (hGIPR [1]) [nM] | EC50 (human GcgR) [nM] | EC50 (hGLP-1R [2]) [nM] | EC50 (hGIPR [3]; [5]) [nM] | EC50 (hGLP-1R [4]; [5]) [nM] | EC50 (hGcgR; [6]) [nM] | EC50 (hGIPR [3]; [6]) [nM] | EC50 (hGLP-1R [4]; [6]) [nM] | EC50 (hGcgR) [nM] | EC50 (hGIPR [3]) [nM] | EC50 (hGLP-1R [4]) [nM] |
| --- | --- | --- | --- | --- | --- | --- | --- | --- | --- | --- | --- | --- |
| H-Y[Aib]QGT[αMePhe(2-F)]TSD[4Pal][αMeS]I[αMeL]LD[Orn][Orn]([AEEA-γGlu-C18 diacid])AQ[αMe4Pal]EFI[dE][αMeY]LIEGGPSSGAPPPSGSE-NH2 [Example 1212] | 1.71 | 0.614 | 230 | 38.2 | 0.00702 | 0.357 | – | – | – | – | – | – |
| H-Y[Aib]QGT[αMePhe(2-F)]TSD[Phe(4-CN)]SILLDKQAQK([AEEA-AEEA-γGlu-C20 diacid])AFIEYLLEGGPSSGEPPPSAG-NH2 [Example 350] | – | 33.6 | 3760 | 360 | – | – | 10.4 | 0.106 | 0.776 | – | – | – |
| H-Y[Aib]QGT[αMePhe(2-F)]TSD[Phe(4-CN)]SILLDKQAQK([AEEA-AEEA-γGlu-C20 diacid])AFIQYLLEGGPSSGEPPPSEG-NH2 [Example 353] | – | 53.7 | 3080 | 222 | – | – | 11 | 0.127 | 0.634 | – | – | – |
| H-Y[Aib]QGT[αMePhe(2-F)]TSD[Phe(4-CN)]SILLDKQAQK([AEEA-γGlu-C20 diacid])AFIQYLLEGGPSSGEPPPSEG-NH2 [Example 341] | – | 49.6 | 2930 | 395 | – | – | 10.7 | 0.213 | 1.62 | – | – | – |
| H-Y[Aib]QGT[αMePhe(2-F)]TSD[Phe(4-CN)]SILLDKQAQK([AEEA-γGlu-γGlu-C20 diacid])AFIEYLLEGGPSSGEPPPSEG-NH2 [Example 352] | – | 34.1 | 4020 | 407 | – | – | 16.4 | 0.245 | 0.967 | – | – | – |
| H-Y[Aib]QGT[αMePhe(2-F)]TSD[Phe(4-CN)]SKLLDKIAQK([AEEA-γGlu-C20 diacid])AFIEYLIEGGPSSGAPPPSGS-NH2 [Example 363] | – | 91.8 | 4080 | 217 | – | – | 13.6 | 0.375 | 1.47 | – | – | – |
| H-Y[Aib]QGT[αMePhe(2-F)]TSD[Phe(4-CN)]SKLLDKIAQK([AEEA-γGlu-C20 diacid])AFIEYLIEGGPSSGEPPPSGS-NH2 [Example 364] | – | 101 | 3190 | 260 | – | – | 10.2 | 0.457 | 1.1 | – | – | – |
| H-Y[Aib]Q[dA]T[αMePhe(2-F)]TSD[4Pal]SI[αMeL]LD[Orn]K([AEEA-γGlu-C18 diacid])AQ[αMe4Pal]EFI[dE][αMeY]LIEGGPSSGAPPPSGS-NH2 [Example 1206] | 1.78 | 7.04 | 251 | 44.1 | 0.0671 | 0.352 | – | – | – | – | – | – |
| H-Y[Aib]Q[dA]T[αMePhe(2-F)]TSD[4Pal]SI[αMeL]LD[Orn]K([AEEA-γGlu-C18 diacid])AQ[αMe4Pal]EFI[dE][αMeY]LVEGGPSSGAPPPSGS-NH2 [Example 1205] | 3.33 | 16.3 | 325 | 50 | 0.152 | 0.523 | – | – | – | – | – | – |
| H-Y[Aib]Q[dA]T[αMePhe(2-F)]TSD[4Pal][αMeS]I[αMeL]LD[Orn]K([AEEA-γGlu-C18 diacid])AQ[Aib]EFI[dE][αMeY]LIEGGPSSGAPPPSGGGE-NH2 [Example 1223] | 2.61 | 9.25 | 472 | 40.7 | 0.0916 | 0.337 | – | – | – | – | – | – |
| H-Y[Aib]Q[dA]T[αMePhe(2-F)]TSD[4Pal][αMeS]I[αMeL]LD[Orn]K([AEEA-γGlu-C18 diacid])AQ[Aib]EFI[dE][αMeY]LIEGGPSSGAPPPSGSE-NH2 [Example 1222] | 2.55 | 12.4 | 470 | 44.8 | 0.0858 | 0.346 | – | – | – | – | – | – |
| H-Y[Aib]Q[dA]T[αMePhe(2-F)]TSD[4Pal][αMeS]I[αMeL]LD[Orn]K([AEEA-γGlu-C18 diacid])AQ[Aib]EFI[dE][αMeY]LVEGGPSSGAPPPSGS-NH2 [Example 1204] | 3.5 | 15.8 | 507 | 37.4 | 0.21 | 0.338 | – | – | – | – | – | – |
| H-Y[Aib]Q[dA]T[αMePhe(2-F)]TSD[4Pal][αMeS]I[αMeL]LD[Orn]K([AEEA-γGlu-C18 diacid])AQ[αMe4Pal]EFI[dE][αMeY]LIEGGPSSGEPPPSGTGE-NH2 [Example 766] | – | 14.1 | 65.7 | 32.5 | – | – | – | – | – | 0.689 | 0.0323 | 0.273 |
| H-Y[Aib]Q[dA]T[αMePhe(2-F)]TSD[4Pal][αMeS]I[αMeL]LD[Orn]K([γGlu-γGlu-C18 diacid])AQ[Aib]EFI[dE][αMeY]LIEGGPSSGAPPPSGGGE-NH2 [Example 1225] | 2.45 | 3.67 | 275 | 31.4 | 0.0531 | 0.399 | – | – | – | – | – | – |
| H-Y[Aib]Q[dA]T[αMePhe(2-F)]TSD[4Pal][αMeS]I[αMeL]LD[Orn]K([γGlu-γGlu-C18 diacid])AQ[Aib]EFI[dE][αMeY]LIEGGPSSGAPPPSGSE-NH2 [Example 1224] | 2.32 | 3.78 | 208 | 28.4 | 0.048 | 0.379 | – | – | – | – | – | – |
| H-[NMeY][Aib]QGTFTSD[4Pal][αMeS]Q[αMeL]LD[Orn]K([dE-γGlu-C18 diacid])AQ[αMe4Pal]QFIQ[αMeY]LIE[Aib]GPSSGAPPPSGGGE-NH2 [Example 1134] | – | 2.41 | 180 | 78.9 | – | – | 2.57 | 0.0391 | 0.957 | – | – | – |
| H-[NMeY][Aib]QGT[αMeF]TSDYSILLDKIAAK([AEEA-AEEA-γGlu-C20 diacid])AFIEYLIEGGPSSGEPPPSEG-NH2 [Example 299] | – | 40.2 | 1700 | 380 | – | – | 2.54 | 0.137 | 0.963 | – | – | – |
| Y[Aib]QGTFTSDFSK[αMeL]LDKK([AEEA-γGlu-C18 diacid])AQ[Aib]AFIEYLIE[Aib]GPSSGAPPPSGS-NH2 [Example 797] | – | 16.7 | 963 | 102 | – | – | 3.78 | 0.0781 | 0.449 | – | – | – |
| Y[Aib]QGTFTSDFSK[αMeL]LDKK([AEEA-γGlu-C20 diacid])AQ[Aib]AFIEYLLEGGPSSGEPPPTEG-NH2 [Example 36] | – | 170 | 1330 | 1360 | – | – | 4.32 | 0.482 | 3.57 | – | – | – |
| Y[Aib]QGTFTSDFSK[αMeL]LDKK([AEEA-γGlu-C20 diacid])AQ[Aib]AFIQWLLEGGPSSGAPPPSEG-NH2 [Example 39] | – | 30.5 | 1090 | 260 | – | – | 10.1 | 0.299 | 2.13 | – | – | – |
| Y[Aib]QGTFTSDFSK[αMeL]LDKK([AEEA-γGlu-C20 diacid])AQ[Aib]AFIQYLLAGGPSSGEPPPSEG-NH2 [Example 27] | – | 72.3 | 1180 | 464 | – | – | 8.91 | 0.41 | 2.33 | – | – | – |
| Y[Aib]QGTFTSDFS[Orn][αMeL]LDKK([AEEA-γGlu-C18 diacid])AQ[Aib]AFIEWLLEGGHSSGAPPPGGE-NH2 [Example 273] | – | 21.8 | 1770 | 516 | – | – | 6.96 | 0.243 | 4.02 | – | – | – |
| Y[Aib]QGTFTSDFS[Orn][αMeL]LDKK([AEEA-γGlu-C18 diacid])AQ[Aib]AFIEWLLEGGHSSGEPPPSGE-NH2 [Example 124] | – | 54.7 | 567 | 801 | – | – | 2.92 | 0.344 | 6.14 | – | – | – |
| Y[Aib]QGTFTSDFS[Orn][αMeL]LDKK([AEEA-γGlu-C18 diacid])AQ[Aib]AFIEYLIE[Aib]GPSSGAPPPSGS-NH2 [Example 796] | – | 17.5 | 1000 | 125 | – | – | 5.3 | 0.098 | 0.602 | – | – | – |
| Y[Aib]QGTFTSDFS[Orn][αMeL]LDKK([AEEA-γGlu-γGlu-C18 diacid])AQ[Aib]AFIEYLLAGGPSSGEPPPSGS-NH2 [Example 153] | – | 16.8 | 1210 | 488 | – | – | 14.7 | 0.218 | 7.09 | – | – | – |
| Y[Aib]QGTFTSDFS[Orn][αMeL]LDKK([γGlu-γGlu-C18 diacid])AQ[Aib]AFIEYLLEGGPSSGAPPPSGT-NH2 [Example 260] | – | 12.4 | 162 | 160 | – | – | 5.04 | 0.251 | 3.85 | – | – | – |
